Results: ChEMBL document CHEMBL4627332, “Interruption of Vif/Elongin C interaction: In silico and experimental elucidation of the underlying molecular mechanism of benzimidazole-based APOBEC3G stabilizers” (Bioorg Med Chem, 2020)
The source made the active and inactive calls. No cut-off for these calls is given here.

Test: Inhibition of HIV1 Vif interaction with ElonginC (unknown origin) co-transfected in 293 T cells assessed as decrease in ElonginC precipitation at 20 uM measured after 1 hr in presence of ant-FLAG antibody by immunoblot analysis
Type: cell-based

## Cc1noc(C)c1CSc1nc2ccccc2n1-c1ccccc1
  inhibition: Active
